Where a SMILES comes first, the peptide text is derived from it. [ ]: non-standard residue; d: D form. The star is where a group is joined. NMeW = CN[C@@H](Cc1c[nH]c2ccccc12)C(=O)O; Palmitoyl = CCCCCCCCCCCCCCCC(=O)*
Tests used:
GalR3 = settings: binding; ref [18]; cited from earlier work
[1] = LogD by HPLC capacity factor; format: physicochemical; settings: RP-HPLC, Vydac diphenyl column (capacity factor k')
[2] = Stability in 25% rat serum; format: in vitro ADME; settings: 25% rat serum at 37° C, 0.1M Tris-HCl pH 7.5, 20 μM peptide, up to 8 hours, HPLC
CF-1 mice [3] = assay: 6 Hz corneal stimulation seizure test; format: in vivo, mouse; settings: 4 mg/kg i.p.; for Primary Screening at 4 mg/kg (6 Hz, 32 mA), mice protected / tested, 15 min: challenged 15 min after administration; for Primary Screening at 4 mg/kg (6 Hz, 32 mA), mice protected / tested, 30 min: challenged 30 min after administration; for Primary Screening at 4 mg/kg (6 Hz, 32 mA), mice protected / tested, 60 min: challenged 60 min after administration; for Primary Screening at 4 mg/kg (6 Hz, 32 mA), mice protected / tested, 120 min: challenged 120 min after administration; for Primary Screening at 4 mg/kg (6 Hz, 32 mA), mice protected / tested, 240 min: challenged 240 min after administration
[4] = in vitro stability in rat serum; ref [5], [7]; cited from earlier work
CF-1 mice [5] = settings: after i.p. administration; ref [5]; cited from earlier work
hGalR2 = biological target: T1, hGalR2 (Homo sapiens, UniProt O43603); format: binding; settings: relative to [N-Me, des-Sar]Gal-B2
T1 sequence (O43603 1-387): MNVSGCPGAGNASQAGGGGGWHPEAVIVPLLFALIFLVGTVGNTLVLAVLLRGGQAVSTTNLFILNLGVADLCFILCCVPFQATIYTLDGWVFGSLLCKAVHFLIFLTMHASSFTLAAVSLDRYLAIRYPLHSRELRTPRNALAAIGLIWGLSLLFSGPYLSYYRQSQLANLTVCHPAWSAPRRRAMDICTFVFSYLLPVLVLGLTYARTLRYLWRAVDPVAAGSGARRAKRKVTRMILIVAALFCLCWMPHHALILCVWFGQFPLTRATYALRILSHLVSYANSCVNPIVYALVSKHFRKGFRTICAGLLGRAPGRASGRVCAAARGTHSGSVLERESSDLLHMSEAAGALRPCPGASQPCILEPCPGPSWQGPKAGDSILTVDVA

Compound | preference towards GalR2 above GalR3 (GalR3) [fold] | chromatographic logD [1] | half-life in 25% rat serum [2] [h] | Primary Screening at 4 mg/kg (6 Hz, 32 mA), mice protected / tested, 15 min (CF-1 mice [3]) | Primary Screening at 4 mg/kg (6 Hz, 32 mA), mice protected / tested, 30 min (CF-1 mice [3]) | Primary Screening at 4 mg/kg (6 Hz, 32 mA), mice protected / tested, 60 min (CF-1 mice [3]) | Primary Screening at 4 mg/kg (6 Hz, 32 mA), mice protected / tested, 120 min (CF-1 mice [3]) | Primary Screening at 4 mg/kg (6 Hz, 32 mA), mice protected / tested, 240 min (CF-1 mice [3]) | serum half-life in rat serum [4] [h] | ED50, 6 Hz corneal stimulation mouse model (CF-1 mice [5]) [mg/kg] | reduction of binding toward GalR2 on removal of N-terminal methyl group (hGalR2) [fold]
WTLNSAGYLL-CONH2 [Gal(2-11)] | 12 |  |  |  |  |  |  |  |  |  | 
CCCCCCCCCCCCCCCC(=O)NCCCC[C@H](NC(=O)[C@H](CCCCN)NC(=O)[C@H](CCCCN)NC(=O)[C@@H]1CCCN1C(=O)CNC(=O)[C@H](CC(C)C)NC(=O)[C@H](CC(C)C)NC(=O)[C@H](Cc1ccc(O)cc1)NC(=O)CNC(=O)[C@H](C)NC(=O)[C@H](CO)NC(=O)[C@H](CC(N)=O)NC(=O)[C@H](CC(C)C)NC(=O)[C@@H](NC(=O)[C@H](Cc1c[nH]c2ccccc12)NC(C)=O)[C@@H](C)O)C(=O)N[C@@H](CCCCN)C(N)=O [[N-Ac, des-Sar]Gal-B2] (Ac-WTLNSAGYLLGPKKK(Palmitoyl)K-NH2) |  | 1.28 ± 0.02 |  |  |  |  |  |  |  |  | 
CCCCCCCCCCCCCCCC(=O)NCCCC[C@H](NC(=O)[C@H](CCCCN)NC(=O)[C@H](CCCCN)NC(=O)[C@@H]1CCCN1C(=O)CNC(=O)[C@H](CC(C)C)NC(=O)[C@H](CC(C)C)NC(=O)[C@H](Cc1ccc(O)cc1)NC(=O)CNC(=O)[C@H](C)NC(=O)[C@H](CO)NC(=O)[C@H](CC(N)=O)NC(=O)[C@H](CC(C)C)NC(=O)[C@@H](NC(=O)[C@H](Cc1c[nH]c2ccccc12)NC(=O)CNC)[C@@H](C)O)C(=O)N[C@@H](CCCCN)C(N)=O [Gal-B2] |  |  | 9.4 | 3/4 | 4/4 | 4/4 | 4/4 | 0/4 | 9.4 | 0.8 | 
CCCCCCCCCCCCCCCC(=O)NCCCC[C@H](NC(=O)[C@H](CCCCN)NC(=O)[C@H](CCCCN)NC(=O)[C@@H]1CCCN1C(=O)CNC(=O)[C@H](CC(C)C)NC(=O)[C@H](CC(C)C)NC(=O)[C@H](Cc1ccc(O)cc1)NC(=O)CNC(=O)[C@H](C)NC(=O)[C@H](CO)NC(=O)[C@H](CC(N)=O)NC(=O)[C@H](CC(C)C)NC(=O)[C@@H](NC(=O)[C@@H](N)Cc1c[nH]c2ccccc12)[C@@H](C)O)C(=O)N[C@@H](CCCCN)C(N)=O [Gal-B5] (H-WTLNSAGYLLGPKKK(Palmitoyl)K-NH2) |  | 1.22 ± 0.02 |  | 2/4 | 1/4 | 2/4 | 2/4 | 0/3 |  |  | 2
CCCCCCCCCCCCCCCC(=O)NCCCC[C@H](NC(=O)[C@H](CCCCN)NC(=O)[C@H](CCCCN)NC(=O)[C@@H]1CCCN1C(=O)CNC(=O)[C@H](CC(C)C)NC(=O)[C@H](CC(C)C)NC(=O)[C@H](Cc1ccc(O)cc1)NC(=O)CNC(=O)[C@H](C)NC(=O)[C@H](CO)NC(=O)[C@H](CC(N)=O)NC(=O)[C@H](CC(C)C)NC(=O)[C@@H](NC(=O)[C@H](Cc1c[nH]c2ccccc12)NC(=O)[C@H](C)N)[C@@H](C)O)C(=O)N[C@@H](CCCCN)C(N)=O [[Sar1Ala]Gal-B2] (H-AWTLNSAGYLLGPKKK(Palmitoyl)K-NH2) |  | 1.28 ± 0.01 |  | 4/4 | 4/4 | 4/4 | 1/4 | 0/4 |  |  | 
CCCCCCCCCCCCCCCC(=O)NCCCC[C@H](NC(=O)[C@H](CCCCN)NC(=O)[C@H](CCCCN)NC(=O)[C@@H]1CCCN1C(=O)CNC(=O)[C@H](CC(C)C)NC(=O)[C@H](CC(C)C)NC(=O)[C@H](Cc1ccc(O)cc1)NC(=O)CNC(=O)[C@H](C)NC(=O)[C@H](CO)NC(=O)[C@H](CC(N)=O)NC(=O)[C@H](CC(C)C)NC(=O)[C@@H](NC(=O)[C@H](Cc1c[nH]c2ccccc12)NC(=O)CN)[C@@H](C)O)C(=O)N[C@@H](CCCCN)C(N)=O [[Sar1Gly]Gal-B2] |  | 1.3 ± 0.04 |  | 1/4 | 3/4 | 3/4 | 0/4 | 0/3 |  |  | 
CCCCCCCCCCCCCCCC(=O)NCCCC[C@H](NC(=O)[C@H](CCCCN)NC(=O)[C@H](CCCCN)NC(=O)[C@@H]1CCCN1C(=O)CNC(=O)[C@H](CC(C)C)NC(=O)[C@H](CC(C)C)NC(=O)[C@H](Cc1ccc(O)cc1)NC(=O)CNC(=O)[C@H](C)NC(=O)[C@H](CO)NC(=O)[C@H](CC(N)=O)NC(=O)[C@H](CC(C)C)NC(=O)[C@@H](NC(=O)[C@H](Cc1c[nH]c2ccccc12)NC)[C@@H](C)O)C(=O)N[C@@H](CCCCN)C(N)=O [[N-Me, des-Sar]Gal-B2] (H-[NMeW]TLNSAGYLLGPKKK(Palmitoyl)K-NH2) |  | 1.29 ± 0.01 |  | 0/4 | 3/4 | 3/4 | 1/4 | 0/3 |  |  | 

From article PMC2846716 (Journal of medicinal chemistry, 2010)
